Earlier results on one compound are cited in patent US8153109B2, “Alkylene carbonate dilution, alkylene carbonate for preparing the dilution, and aqueous reducing chemical agent” (San-Ei Kagaku Co., Ltd., priority 2006, dated 2012).

For this data set the following is noted: test day 10, emulsified chemical agent, in some cases.

`O=C1OCCC1S` (stereo not shown) [2-mercapto-4-butyrolactone]: the “percent decomposition of 2-mercapto-4-butyrolactone” value is “about 30%”.
